# Measurements reported in the supplement of paper PMC11208160.
# Assay: recombinant UMI read abundance after kanamycin selection (control-corrected) (log10(CPM+1)); higher = more efficient recombination; extreme values may be limits of the assay; sequences stand for … in AGTGCAGAGAAAATCGGCCAGTTTTCTCTGCCTGCAGTCCGCATGCCGTGGGACCCCTTGGGTTCTAACCTGTTGCCTAGATTTATGCAGCGGACTGCCTTTCTCCCAAAGTGATAAACCGG…AGGTTGGTTTCACT; site = the 11-nt donor
# Outline: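 In Escherichia coli, a pool of donor and donor-binding-loop pairs, each with a 12-nt UMI, was tested for the IS621 bridge recombinase. Plating was on IPTG (0.07 mM) plus kanamycin, or without selection, in two replicates. Recombinant UMIs were amplified by PCR across the donor–target junction and sequenced, and counts were reported as log10(CPM+1) after averaging and control-derived scaling.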
# 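Further: IS621 bridge recombinase in Escherichia coli cells against a fixed T5 target plasmid.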
row,Sequence,recombinant UMI read abundance (log10)
1,CGGACCTCATGGACCGGTTTTCCCGGTAATCCGTATTTGCT (site CGGACGTCTAG),0.00745
2,CGGACCTCATGGACCGGTTTTCCCGGTAATCCGTATTTGCT (site CGGACTTCTAG),0
3,CGGACGTCATGGACCGGTTTTCCCGGTAATCCGTATTTGCT (site CGGACATCTAG),2.54
4,CGGACGTCATGGACCGGTTTTCCCGGTAATCCGTATTTGCT (site CGGACCTCTAG),0
5,CGGACGTCATGGACCGGTTTTCCCGGTAATCCGTATTTGCT (site CGGACGTCTAG),3.06
6,CGGACGTCATGGACCGGTTTTCCCGGTAATCCGTATTTGCT (site CGGACTTCTAG),0.597
7,CGGACTACATGGACCGGTTTTCCCGGTAATCCGTATTTGAC (site AGGACTACTGT),0
8,CGGACTACATGGACCGGTTTTCCCGGTAATCCGTATTTGAC (site CGGACTACTGT),2.98
9,CGGACTACATGGACCGGTTTTCCCGGTAATCCGTATTTGAC (site GGGACTACTGT),0
10,CGGACTACATGGACCGGTTTTCCCGGTAATCCGTATTTGAC (site TGGACTACTGT),1.51
11,CGGACTCCATGGACCGGTTTTCCCGGTAATCCGTATTTGGT (site CGGAATCCTAA),0.00968
12,CGGACTCCATGGACCGGTTTTCCCGGTAATCCGTATTTGGT (site CGGACTCCTAC),0.215
13,CGGAGAGCATGGACCGGTTTTCCCGGTAATCCGTATTTGAA (site CGGAGAGCTTT),2.27
14,CGGAGCACATGGACCGGTTTTCCCGGTAATCCGTATTTGCA (site CGGAGCACTTG),2.66
15,CGGAGGACATGGACCGGTTTTCCCGGTAATCCGTATTTGCA (site AGGAAGACTTG),0
16,CGGAGGACATGGACCGGTTTTCCCGGTAATCCGTATTTGCA (site CGGAGGACTTG),2.78

row,Sequence,recombinant UMI read abundance (log10)
1,CGGAGGCCATGGACCGGTTTTCCCGGTAATCCGTATTTGTT (site CGGAATCCTAA),0.00304
2,CGGAGGCCATGGACCGGTTTTCCCGGTAATCCGTATTTGTT (site CGGAGGCCTAA),0
3,CGGATAGCATGGACCGGTTTTCCCGGTAATCCGTATTTGTT (site CGGATAGCTAA),2
4,CGGCATCCATGGACCGGTTTTCCCGGTAATCCGTATTTGTG (site CGGAATCCTAA),0
5,CGGCATCCATGGACCGGTTTTCCCGGTAATCCGTATTTGTG (site CGGCATCCTCA),0.644
6,CGGCCGGCATGGACCGGTTTTCCCGGTAATCCGTATTTGGC (site AGGCCGGCTGC),0
7,CGGCCGGCATGGACCGGTTTTCCCGGTAATCCGTATTTGGC (site CGGCCGGCTGC),1.21
8,CGGCCGGCATGGACCGGTTTTCCCGGTAATCCGTATTTGGC (site GGGCCGGCTGC),0
9,CGGCCGGCATGGACCGGTTTTCCCGGTAATCCGTATTTGGC (site TGGCCGGCTGC),0
10,CGGCGCACATGGACCGGTTTTCCCGGTAATCCGTATTTGTA (site CGGCGCACTTA),1.57
11,CGGCTACCATGGACCGGTTTTCCCGGTAATCCGTATTTGCT (site CAGCTACCTAG),0
12,CGGCTACCATGGACCGGTTTTCCCGGTAATCCGTATTTGCT (site CCGCTACCTAG),0
13,CGGCTACCATGGACCGGTTTTCCCGGTAATCCGTATTTGCT (site CGGCTACCTAG),0
14,CGGCTACCATGGACCGGTTTTCCCGGTAATCCGTATTTGCT (site CTGCTACCTAG),0
15,CGGCTGACATGGACCGGTTTTCCCGGTAATCCGTATTTGCC (site CGGCTGACTGG),1.22
16,CGGCTGACATGGACCGGTTTTCCCGGTAATCCGTATTTGTT (site CGGCTGACTAA),0.0767
